In patent publication US7625948B2, “Ester compound and medicinal use thereof” (Japan Tobacco Inc., priority 2002, dated 2009):

Each compound was assayed on HepG2 cells (assay: Test Example 2: inhibition of apolipoprotein B secretion from HepG2 cells, ELISA (also used for metabolites in Test Example 8)). Conditions: Homo sapiens, 24 hours, apo B in supernatant by ELISA, read-out: Test Example 2 Inhibition of apo B secretion IC50.
Assay type: cell-based
Protocol: Inhibition of Apolipoprotein B Secretion from HepG2 Cells
HepG2 cells were suspended in Dulbecco's Modified Eagle's Medium (DMEM) (containing 10% fetal bovine serum, 100 units/mL penicillin and 100 μg/mL streptomycin), and placed on a 96-well plate (4×10^4 cells/well), then incubated for 24 hours. After removal of the medium, DMEM was replaced by a medium containing a sample dissolved in DMSO or a medium containing DMSO (concentration of DMSO: 0.5%) and incubation was further performed for 24 hours, after which the supernatant was recovered, and concentration of apo B in the supernatant was assayed by Enzyme-Linked Immunosorbent Assay (ELISA)
ELISA was carried out as follows. Anti-human apo B monoclonal antibody (0.5 μg/well) diluted with a solution of sodium carbonate in sodium bicarbonate buffer (50 mL, pH 9.6) was placed in a 96-well plate for ELISA, and allowed to stand at room temperature for 15 hours. After washing the plate, a blocking solution (250 μL/well) was placed in the well, and allowed to stand at room temperature for 1.5 hours. After washing the plate, a standard and a sample (100 μL/well) were placed in the well and allowed to stand at room temperature for one hour. The standard was prepared by adjusting the concentration of the purified human apo B with the DMEM to 0 to 1000 ng/mL. After washing the plate, an anti-human apo B polyclonal antibody labeled with a horse radish peroxidase which was diluted in 1:1000 with DEME (100 μL/well), and allowed to stand at room temperature for one hour. After washing the plate, 2,2-azinobis(3-ethylbenzothiazoline-6-sulfonic acid) solution (100 μL/well) was placed in the well, and allowed to stand at room temperature for one hour. The reaction was stopped by addition of 2% oxalic acid (100 μL/well), and absorbency at 405 nm was measured. Concentration of apo B in the sample was calculated on the basis of a standard curve of the standard. Inhibition rate (%) was calculated from the assayed values in accordance with the following equation.
Inhibition rate (%)=100×(1 minus (concentration of apo B in sample group/concentration of apo B in DMSO group).
Based on the above equation, 50% inhibition concentration (IC50) was determined.
Inhibitory Activity on MTP and apo B Secretion Inhibition by Metabolites
In a similar manner to Test Examples 1 and 2, the activity of metabolites was assayed.

Row | SMILES | IC50
1 | CCC(=O)N[C@@H](COC(=O)Cc1ccc(NC(=O)c2ccccc2-c2ccc(C(F)(F)F)cc2)c(C(=O)N(C)C)c1)c1ccccc1 [Example 2-24] | 28 nM
2 | CCOC(=O)C(COC(=O)Cc1ccc(NC(=O)c2ccccc2-c2ccc(C(F)(F)F)cc2)c(NC(C)=O)c1)(C(=O)OCC)c1ccccc1 [Example 9-21] | 20 nM
3 | CCOC(=O)C(COC(=O)Cc1cc(C(=O)N(C)C)c(NC(=O)c2ccccc2-c2ccc(C(F)(F)F)cc2)c(Br)c1F)(C(=O)OCC)c1ccccc1 [Example 2-67] | 43 nM
4 | CCCN(C)C(=O)c1cc(CC(=O)OCC(C(=O)NCC)(C(=O)NCC)c2ccccc2)ccc1NC(=O)c1ccccc1-c1ccc(C(F)(F)F)cc1 [Example 2-19] | 26 nM
5 | CCNC(=O)C(COC(=O)Cc1ccc(NC(=O)c2ccccc2-c2ccc(C(F)(F)F)cc2)c(N2CCCCC2)c1)(C(=O)NCC)c1ccccc1 [Example 4-2] | 16 nM
6 | CCOC(=O)C(COC(=O)Cc1ccc(NC(=O)c2ccccc2-c2ccc(C(F)(F)F)cc2)c(-c2ccccc2)c1)(C(=O)OCC)c1ccccc1 [Example 9-24] | 7.86 nM
7 | CCOC(=O)C(COC(=O)Cc1ccc(NC(=O)c2ccccc2-c2ccc(C(F)(F)F)cc2)c(O)c1)(C(=O)OCC)c1ccccc1 [Example 3-15] | 49.9 nM
8 | CCNC(=O)C(COC(=O)Cc1ccc(NC(=O)c2ccccc2Oc2ccccc2)c(C(=O)N(C)C)c1)(C(=O)NCC)c1ccccc1 [Example 2-44] | 33 nM
9 | CCNC(=O)C(COC(=O)Cc1ccc(NC(=O)c2ccccc2-c2ccc(C(F)(F)F)cc2)c(C(=O)N(C)C(C)C)c1)(C(=O)NCC)c1ccccc1 [Example 2-12] | 7 nM
10 | CC(=O)N[C@H](COC(=O)Cc1ccc(NC(=O)c2ccccc2-c2ccc(C(F)(F)F)cc2)c(C(=O)N(C)C)c1)c1ccccc1 [Example 2-35] | 38 nM
11 | CCOC(=O)C(COC(=O)Cc1ccc(NC(=O)c2ccccc2-c2ccc(C(F)(F)F)cc2)c(N2CCOCC2)c1)(C(=O)OCC)c1ccccc1 [Example 4-7] | 15 nM
12 | CCC(=O)N(C)[C@H](COC(=O)Cc1ccc(NC(=O)c2ccccc2-c2ccc(C(F)(F)F)cc2)c(C(=O)N(C)C)c1)c1ccccc1 [Example 2-51] | 47 nM
13 | CCOC(=O)C(COC(=O)Cc1ccc(NC(=O)c2ccccc2-c2ccc(C(F)(F)F)cc2)c(OCC)c1)(C(=O)OCC)c1ccccc1 [Example 3, 2-(2-{3-Ethoxy-4-[(4′-trifluoromethylbiphenyl-2-carbonyl)amino]phenyl}acetoxymethyl)-2-phenylmalonic acid diethyl ester] | 1.9 nM
14 | CCOC(=O)C(COC(=O)Cc1ccc(NC(=O)c2ccccc2-c2ccc(C(F)(F)F)cc2)c(N2CCCC2)c1)(C(=O)OCC)c1ccccc1 [Example 4-5] | 5.2 nM
15 | CCOC(=O)C(CC)(COC(=O)Cc1ccc(NC(=O)c2ccccc2-c2ccc(C(F)(F)F)cc2)c(C(=O)N(C)C)c1)C(=O)OCC [Example 2-115] | 44 nM
16 | CCOC(=O)C(COC(=O)Cc1ccc(NC(=O)c2ccccc2-c2ccc(C(F)(F)F)cc2)c(CC)c1)(C(=O)OCC)c1ccccc1 [Example 1-78] | 11 nM
17 | CCNC(=O)C(COC(=O)Cc1ccc(NC(=O)c2ccccc2-c2ccc(C(F)(F)F)cc2)c(C(=O)OCc2ccccc2)c1)(C(=O)NCC)c1ccccc1 [Example 9-8] | 6.9 nM
18 | CCOC(=O)C(COC(=O)Cc1ccc(NC(=O)c2ccccc2-c2ccc(C(F)(F)F)cc2)c(N(CC)CC)c1)(C(=O)OCC)c1ccccc1 [Example 4-8] | 10 nM
19 | CCOC(=O)C(CCOC(=O)Cc1cccc(NC(=O)c2ccccc2-c2ccc(C(F)(F)F)cc2)c1C(=O)OC)(C(=O)OCC)c1ccccc1 [Example 5-17] | 5.2 nM
20 | CN(C)C(=O)c1cc(CC(=O)OCC(CO)(CO)c2ccccc2)ccc1NC(=O)c1ccccc1-c1ccc(C(F)(F)F)cc1 [Example 2-103] | 42.6 nM
21 | CCNC(=O)C(COC(=O)Cc1ccc2c(c1)oc(=O)n2C(=O)c1ccccc1-c1ccc(C(F)(F)F)cc1)(C(=O)NCC)c1ccccc1 [Example 9-3, [2-Oxo-3-(4′-trifluoromethylbiphenyl-2-carbonyl)-2,3-dihydrobenzoxazol-6-yl]acetic acid 2,2-bisethylcarbamoyl-2-phenylethyl ester] | 59 nM
22 | COCCNC(=O)C(COC(=O)Cc1ccc(NC(=O)c2ccccc2-c2ccc(C(F)(F)F)cc2)cc1)(C(=O)NCCOC)c1ccccc1 [Example 1-73] | 39 nM

Now from value to compound:

Row | IC50 | SMILES
23 | 4.6 nM | CCOC(=O)C(COC(=O)Cc1ccc(NC(=O)c2ccc(OC)cc2-c2ccc(C(F)(F)F)cc2)c(C(=O)N(C)C)c1)(C(=O)OCC)c1ccccc1 [Example 2-53]
24 | 3.1 nM | CCOC(=O)C(COC(=O)CCc1ccc(NC(=O)c2ccccc2-c2ccc(C(F)(F)F)cc2)c(C(=O)N(C)C)c1)(C(=O)OCC)c1ccccc1 [Example 9-5, 2-(3-{3-Dimethylcarbamoyl-4-[(4′-trifluoromethylbiphenyl-2-carbonyl)-amino]-phenyl}-propionyloxymethyl)-2-phenyl-malonic acid diethyl ester]
25 | 3.1 nM | CCCC(COC(=O)Cc1ccc(NC(=O)c2ccccc2-c2ccc(C(F)(F)F)cc2)c(C(=O)N(C)C)c1)(C(=O)OCC)C(=O)OCC [Example 2-114]
26 | 3 nM | CCOC(=O)C(CCOC(=O)Cc1cccc(NC(=O)c2ccccc2-c2ccc(C(F)(F)F)cc2)c1OC(C)C)(C(=O)OCC)c1ccccc1 [Example 5-16]
27 | 2.9 nM | CCOC(=O)C(COC(=O)Cc1ccc(NC(=O)c2ccccc2-c2ccc(C#N)cc2)c(C(=O)N(C)C)c1)(C(=O)OCC)c1ccccc1 [Example 2-46]
28 | 2.74 nM | CCOC(=O)C(COC(=O)Cc1ccc(NC(=O)c2ccccc2-c2ccc(C(F)(F)F)cc2)c(C(=O)N(C)C)c1)(C(=O)OCC)c1ccc(OC)cc1 [Example 2-77]
29 | 2.7 nM | CCNC(=O)C(COC(=O)Cc1ccc(NC(=O)c2ccccc2-c2ccc(C(F)(F)F)cc2)c(C(=O)N2CCCCC2)c1)(C(=O)NCC)c1ccccc1 [Example 2-16]
30 | 2.34 nM | CCOC(=O)C(COC(=O)Cc1ccc(NC(=O)c2ccccc2-c2ccc(C(F)(F)F)cc2)c(C(=O)N(C)C)c1)(C(=O)OCC)c1ccc(C)cc1 [Example 2-70]
31 | 2.25 nM | CCOC(=O)C(COC(=O)Cc1ccc(NC(=O)c2ccccc2-c2ccc(C(F)(F)F)cc2)c(C(=O)N(C)C)c1)(C(=O)OCC)c1ccccc1C [Example 2-68]
32 | 2 nM | CCOC(=O)C(COC(=O)Cc1ccc(NC(=O)c2ccccc2-c2ccc(Br)cc2)c(C(=O)N(C)C)c1)(C(=O)OCC)c1ccccc1 [Example 2-34]
33 | 1.9 nM | CCNC(=O)C(COC(=O)Cc1ccc(NC(=O)c2ccccc2-c2ccc(C(F)(F)F)cc2)c(OCc2ccccc2)c1)(C(=O)NCC)c1ccccc1 [Example 3-13]
34 | 1.47 nM | CCOC(=O)C(COC(=O)Cc1ccc(NC(=O)c2ccccc2-c2ccc(C(C)C)cc2)c(C(=O)N(C)C)c1)(C(=O)OCC)c1ccccc1 [Example 2-92]
35 | 1.4 nM | CCOC(=O)C(COC(=O)Cc1ccc(NC(=O)c2ccccc2-c2ccc(C(F)(F)F)cc2)c(C(=O)N(CC)CC)c1)(C(=O)OCC)c1ccccc1 [Example 2-10]
36 | 0.96 nM | CCOC(=O)C(COC(=O)Cc1ccc(NC(=O)c2ccccc2-c2ccc(C(F)(F)F)cc2)c(NC(=O)OC)c1)(C(=O)OCC)c1ccccc1 [Example 9-22]
37 | 0.96 nM | CCOC(=O)C(CCOC(=O)Cc1ccc(NC(=O)c2ccc(C)cc2-c2ccc(C(F)(F)F)cc2)c(C(=O)N(C)C)c1)(C(=O)OCC)c1ccccc1 [Example 2-81]
38 | 0.95 nM | CCOC(=O)C(COC(=O)Cc1ccc(NC(=O)c2ccccc2-c2ccc(C(F)(F)F)cc2)c(C(=O)N(C)C)c1)(C(=O)OCC)c1cccc(Cl)c1 [Example 2-72]
39 | 0.65 nM | CCOC(=O)C(COC(=O)Cc1ccc(NC(=O)c2ccccc2-c2ccc(C(F)(F)F)cc2)c(C(=O)N(C)C)c1)(C(=O)OCC)c1nccs1 [Example 2-110]
40 | 0.64 nM | CCCN(C)C(=O)c1cc(CC(=O)OCCC(C(=O)NCC)(C(=O)NCC)c2ccccc2)ccc1NC(=O)c1ccccc1-c1ccc(C(F)(F)F)cc1 [Example 2-20]
41 | 0.56 nM | CCOC(=O)C(COC(=O)Cc1ccc(NC(=O)c2ccccc2-c2ccc(C(F)(F)F)cc2F)c(C(=O)N(C)C)c1)(C(=O)OCC)c1ccccc1 [Example 2-57]
42 | 0.33 nM | CCNC(=O)C(COC(=O)Cc1ccc(NC(=O)c2ccccc2-c2ccc(C(F)(F)F)cc2)c(N(C)C)c1)(C(=O)NCC)c1ccccc1 [Example 4, 2-{3-Dimethylamino-4-[(4′-trifluoromethylbiphenyl-2-carbonyl)amino]phenyl}acetic acid 2,2-bisethylcarbamoyl-2-phenylethyl ester]

Same assay, conditions: Homo sapiens, main metabolites of the compounds (Test Example 8), read-out: Inhibition of apo B secretion IC50

Row | IC50 | SMILES
43 | > 10000 nM | O=C(O)Cc1ccc(NC(=O)c2ccccc2-c2ccc(C(F)(F)F)cc2)c(C(=O)N2CCCC2)c1
